Measured values from patent US20110177046A1, “DITHIAZOLIDINE AND THIAZOLIDINE DERIVATIVES AS ANTICANCER AGENTS” (Betagenon AB, priority 2007, published 2011).

Tests used:
[1] = system: MDA-MB-231 human breast cancer cell lines; assay: Test A cell proliferation assay (BrdU incorporation); type: cell-based; conditions: MDA-MB-231 cells; for BrdU incorporation relative to vehicle control (1 unit): approximate
Protocol: The cell line was propagated in D-MEM (Gibco 21885) supplemented with 10% Foetal calf serum. 15000 cells per well were seeded in 96 well plates and incubated overnight. The culture media was changed to serum-free D-MEM for 24 h. […] After 18 h incubation, BrdU was added according to manufacturer's recommendations. After 6 h incubation in the presence of BrdU, the culture media was removed and BrdU incorporation was measured using “Cell Proliferation ELISA, BrdU colorimetric” Roche (11647229001) according to manufacturer's recommendations.

[2] = system: MDA-MB-231 human breast cancer cells xenograft tumors; assay: Test B in vivo mouse model Test 2, tumor weight; design: species or system Athymic BALB/cA nude mice; conditions: 8 mg/kg i.p. once daily for 27 days; vehicle control approximately 225 mg
Protocol: 5 week old Athymic BALB/cA nude mice are delivered from Taconic (Denmark) and kept under barrier conditions for 1 week acclimatisation. At 6 weeks, 17 mice are injected subcutaneously on the flank with 1.8×10^6 MDA-MB-231 human breast cancer cells (LGC Promochem-ATCC) in a 50/50 v/v solution of phosphate buffered saline (PBS) (Gibco 10010-015, Invitrogen) Matrigel HC (BD Biosciences).
After 11 days, palpable tumors are observed in 16 mice. 2 mice are sacrificed and the tumors dissected and examined. 2 groups of 7 mice each are treated once daily by intraperitoneal injections of 1-10 mg/kg bodyweight of test compound in 79% PBS/20% Solutol HS 15 (BASF)/1% DMSO or vehicle control respectively for 5-30 days. The mice are sacrificed by cervical dislocation and tumors are dissected.
The above test procedure was followed, but 16 (rather than 17) mice were injected subcutaneously.
2 groups of 8 mice each were treated once daily by intraperitoneal injections of 8 mg/kg bodyweight of compound of Example 1 in 79% PBS/20% Solutol HS 15(BASF)/1% DMSO or vehicle control respectively for 27 days. Tumors were dissected and weighed at the end of the experiment.

Ob/Ob mice [3] = assay: Test C insulin measurement study in diabetic Ob/Ob mice, Method (II); type: in vivo; conditions: fed Ob/Ob mice, 30 mg/kg gavage twice daily for 18 days, vs vehicle
Protocol: (§1) The aim of this study was to verify the efficacy of compound of Example 1 in the diabetic ob/ob mouse with regard to correction of the metabolic disorder hyperinsulinemia. Ob/ob mice were gavaged twice daily with compound of Example 1 and the effect of the compound on levels of plasma insulin were assessed and the results were compared to a concurrent control group gavaged with vehicle.
The compound of Example 1 was obtained from Isosep AB, Uppsala, Sweden. A stock solution of 6 mg/ml was prepared by dissolving the compound in PBS, pH 7.4, 1% DMSO and 0.5% methyl cellulose.
Male B6.V-Lep^ob/JBomTac (model number OB-M) mice were bred and delivered by Taconic. Animals were housed in Umea University animal facility in transparent polycarbonate cages, with wood chip bedding at a 12 h light/darkness cycle, a temperature of […], and a relative humidity of −50% throughout the accommodation and dosing periods. 5 animals were housed in each cage with free access to standard rodent chow (CRM(E)Rodent, Special Diets Services, Scanbur BK, Sweden) and tap water. […]
(§2) In vivo potency and efficacy were determined in groups of 10 mice. […]
Plasma insulin levels were determined according to the manufacturer's recommendations with a rat insulin ELISA kit using mouse insulin standard (Crystal Chem Inc).
(§3) Data in the figures are presented as means±SEM. P values were calculated using the Student's t-test. […]

Ob/Ob mice [4] = assay: Test D blood glucose measurement study in diabetic Ob/Ob mice, Method (II); type: in vivo; conditions: 30 mg/kg gavage twice daily for 18 days, vs vehicle
Protocol: as §1, with “hyperglycemia.” for “hyperinsulinemia.”, “blood glucose” for “plasma insulin”
(§4) Male B6.V-Lep^ob/JBomTac (model number OB-M) mice were bred and delivered by Taconic. Animals were housed in Umea University animal facility in transparent polycarbonate cages, with wood chip bedding at a 12 h light/darkness cycle, a temperature of ˜21° C., and a relative humidity of ˜50% throughout the accommodation and dosing periods. 5 animals were housed in each cage with free access to standard rodent chow (CRM(E)Rodent, Special Diets Services, Scanbur BK, Sweden) and tap water. All animal experiments were approved by the Local Ethics Review Committee on Animal Experiments, Umea Region.
as §2
Blood glucose levels were measured by using a Glucometer Elite (Bayer) according to the manufacturer's recommendations.
as §3

Ob/Ob mice [5] = assay: Test E plasma triglyceride study in diabetic Ob/Ob mice, Method (II); type: in vivo; conditions: fed Ob/Ob mice, 15 mg/kg gavage twice daily for 20 days, vs vehicle
Protocol: The aim of this study was to verify the efficacy of compound of Example 1 in the diabetic ob/ob mouse with regard to correction of the metabolic disorder hypertriglyceridemia. Ob/ob mice were gavaged twice daily with compound of example 1 and the effect of the compound on levels of plasma triglycerides were assessed and the results were compared to a concurrent control group gavaged with vehicle.
as §4, with “B6.V-Lep^ob/JUmeaTac” for “B6.V-Lep^ob/JBomTac”, “UMEA-M)” for “OB-M)”, “[…]” for “˜21°”, “−50%” for “˜50%”
as §2
Plasma triglycerides were determined with an enzymatic colorimetric assay (TRO100, Sigma-Aldrich) according to the manufacturer's recommendations.
as §3

AMPK = assay: Test F activation of AMPK, Western blot of phospho-AMPKα Thr172 in HepG2 cells; type: cell-based, human; conditions: 10 μM
Protocol: (§5) The compound of Example 1 was obtained from Isosep AB, Uppsala, Sweden. A stock solution of 10 mM was prepared by dissolving the compound in 100% DMSO.
(§6) Human hepatoma HepG2 cells were purchased from American Type Culture Collection (ATCC, Manassas, USA). HepG2 cells were cultured in DMEM (Gibco 212885) containing 10% fetal bovine serum (Gibco 10500-064), 100 units/ml penicillin, 100 μg/ml streptomycin (Gibco 15140-122) and 1× non essential amino acids (Gibco 11140). The cells were incubated in a humidified atmosphere of 5% CO2 at 37° C. and passaged every 3 days by trypsinization. For experiments, HepG2 cells were incubated in complete medium with 10% fetal bovine serum in 60 or 100-mm-diameter dishes and grown to ˜70-80% confluence and subjected to assays after overnight serum depletion (16 h). After incubation in serum-free DMEM, the compound of Example 1 that was dissolved in DMSO was added to the medium.
Cells were lysed in 100 mM TRIS pH 6.8, 2% w/v Sodium dodecyl sulfate (SDS), 10 mM NaF, 10 mM β-glycerophosphate, 1 mM Na Vanadate. Protein concentration of the lysates was measured by BCA protein assay kit (Pierce #23225). 25 μg protein was loaded in each well of a 4-12% bis/tris gel for AMPK detection (Criterion precast gel Bio-Rad #345-0124) or 5% Tris-HCl gel for acetyl-CoA carboxylase (ACC) detection (Criterion Precast gel Bio-Rad #345-0002) and run according to manufacturers recommendation. Gels were blotted onto nitrocellulose filters (Hybond-C extra Amersham #RPN203E). Filters were blocked in 20 mM TRIS pH 7.5, 137 mM NaCl, […] and 5% w/v fat free powdered milk for 30 min. Filters were incubated overnight in blocking solution with phospho-AMPKαThr172, AMPKα or phospho-ACC (Ser 79) (Cell signalling #2531, #2532 and #3661). Filters were washed in 20 mM TRIS pH 7.5, 137 mM NaCl, […] for 3×5 min. Filters were incubated in blocking solution with secondary antibody, peroxidase-conjugated Goat anti rabbit IgG (Jackson immunoResearch #111-035-003) in room temperature for 1 h. Filters were washed as above for 3×10 min. […]

[6] = system: acetyl-CoA carboxylase (ACC); assay: Test F phosphorylation of ACC (Ser 79), Western blot in HepG2 cells; type: cell-based, human; conditions: 10 μM
Protocol: as §5, §6
Cells were lysed in 100 mM TRIS pH 6.8, 2% w/v Sodium dodecyl sulfate (SDS), 10 mM NaF, 10 mM β-glycerophosphate, 1 mM Na Vanadate. Protein concentration of the lysates was measured by BCA protein assay kit (Pierce #23225). […]

[7] = system: human primary mesangial cells; assay: Test G amelioration of TGFβ dependent collagen IV secretion (ELISA); type: cell-based; conditions: 2.5 μM with TGFβ 0.5 ng/ml, 48 h, ELISA absorbance
Protocol: Human primary mesangial cells (Lonza) were seeded at a density of 57 00 cells per well in a 24 well plate in DMEM (Gibco 212885) supplemented with Non essential amino acids (Gibco 11140) Penicillin/streptomycin (Gibco 15140-122) and 10% Foetal Calf Serum (FBS) (Gibco 10500-064)
After 24 h incubation, media was changed to DMEM (Gibco 212885) supplemented with Non essential amino acids (Gibco 11140) Penicillin/streptomycin (Gibco 15140-122) and 0.5% Foetal Calf Serum (FBS)(Gibco 10500-064) as the experimental media. After 24 h incubation, media was changed to experimental media containing either vehicle or […] (0.5 ng/ml), compound of Example 1 (2.5 μM), or TGFβ (0.5 ng/ml) and compound of Example 1 (2.5 μM) in combination.
After 48 h of exposure the supernatant from each well was collected and subjected to ELISA analysis.
Using Nunc Maxisorp microtiter plates, duplicate samples of conditioned cell culture medium (diluted 1:10) was used for coating ([…], 18 h, +4° C.). […] After 3× washing in ELISA buffer, reactions were visualised using 100 μl/well TMB liquid substrate system for ELISA (Sigma) After maximum 30 min reactions were stopped by addition of 25 μl 1 M H2SO4 and immediately analysed at 450 nm using a Multiskan EX plate reader (Thermo Labsystems).

For `O=C1N=C(NS(=O)(=O)c2ccc(Cl)c(Cl)c2)SC1Cc1cccc(C(F)(F)F)c1` (centres unmarked) [Example 1, 5-(3-(Trifluoromethyl)benzyl)-2-(3,4-dichlorophenyl)sulfonyliminothiazolidin-4-one], the “BrdU incorporation relative to vehicle control (1 unit)” value ([1]; 0.5 μM) was about 0.95 units, the “BrdU incorporation relative to vehicle control (1 unit)” value ([1]; 1 μM) was about 1 units and the “BrdU incorporation relative to vehicle control (1 unit)” value ([1]; 5 μM) was about 0.5 units. The “BrdU incorporation relative to vehicle control (1 unit)” value ([1]; 10 μM) was about 0.15 units, the “Effect on proliferation rate as measured by BrdU incorporation” value [1] was “dose dependent reduction in proliferation” and the “Tumor weight at the end of the experiment” value [2] was “about 130 mg”. For the same compound, the “Effect on hyperinsulinemia (plasma insulin)” value (Ob/Ob mice [3]) was “attenuates hyperinsulinemia”, the “Effect on fed blood glucose levels” value (Ob/Ob mice [4]) was “attenuated” and the “Effect on plasma triglycerides” value (Ob/Ob mice [5]) was “attenuated”. For the same compound, the “Effect on AMPK phosphorylation” value (AMPK) was “stimulates AMPK phosphorylation”, the “Time for AMPK phosphorylation to rise to near maximal levels” value (AMPK) was at most 1 h and the “Time for which AMPK phosphorylation was sustained” value (AMPK) was 24 h. The “Effect on phosphorylation of ACC” value [6] was “enhanced phosphorylation of ACC” and the “Effect on TGFβ dependent collagen IV secretion” value [7] was “ameliorate the TGFβ dependent collagen IV secretion”.
